# In patent US7387779B2, “Anti-angiogenic proteins and fragments and methods of use thereof” (Beth Israel Deaconess Medical Center, priority 1998, dated 2008):
# Several values for one entry are separate records, joined by “and”; a condition that tells them apart may be missing. Equal entries are not always repeated. Where two headings read alike, the source gives them in different places.
# B1: Tumstatin 334: residues 125 to 244 of full-length Tumstatin (SEQ ID NO:21) (protein)
# chain: CEGPAIAIAVHSQTTDIPPCPHGWISLWKGFSFIMFTSAGSEGTGQALASPGSCLEEFRASPFLECHGRGTCNYYSNSYSFWLASLNPERMFRKPIPSTVKAGELEKIISRCQVCMKKRH
# modifications: Tumstatin 334 (amino acids 125-244 of SEQ ID NO10)
# B2: Tumstatin 333: residues 1 to 124 of full-length Tumstatin (SEQ ID NO:20) (protein)
# chain: GLKGKRGDSGSPATWTTRGFVFTRHSQTTAIPSCPEGTVPLYSGFSFLFVQGNQRAHGQDLGTLGSCLQRFTTMPFLFCNVNDVCNFASRNDYSYWLSTPALMPMNMAPITGRALEPYISRCTV
# modifications: Tumstatin 333 (amino acids 1-124 of3 SEQ ID NO10)
# How the values were obtained:
# PC3 tumor xenografts [1] = test: PC3 human prostate tumor xenograft (Example 58); type: in vivo, nude NCRNU mice
# Procedure: Male nude NCRNU mice, 5-6 weeks old, weighing approximately 25 grams, 6 were implanted with 2×10^6 PC3 cells into the dorsal subcutis. When the tumors were 60 mm^3, the animals were pair-matched into treatment and control groups. Each group contained 6-7 tumored mice, each of which was ear-tagged and followed individually throughout the experiment. Initial doses of peptide or vehicle control were given on the day of pair-matching (Day 0), and were administered via intraperitoneal (i.p.) injection at doses indicated. Mice were weighed weekly, and tumor measurements were taken by calipers weekly. These tumor measurements were converted to tumor volume by a well-known formula, (V=W^2×L/2), and mean tumor volumes were plotted against time. Mice were euthenized at the end of the treatment period. Upon termination, the mice were weighed, sacrificed and their tumors were excised. The mean tumor weight per group was calculated, and the value of mean treated tumor volume or volume ratio/mean control tumor volume or volume ratio×100 was subtracted from 100% to give the tumor growth inhibition (TG1) for each group. All groups received injections I.P. daily, except for two T8-treated groups, which were treated twice per week and once a week, respectively.
# [2] = system: MDAMB-435 tumor xenografts; test: MDAMB-435 human breast orthotopic xenograft (Example 57); type: in vivo, nude NCRNU mice; details: four weeks; for Final Tumor Weight (V/Vo) ± SEM: control 3.77 ± 0.38
# Procedure: Female nude NCRNU mice, 5-6 weeks old, weighing approximately 20 grams, were implanted with 2×10^6 MDAMB-435 cells into the subaxillary mammary fat pad. When the tumors were 100 mm^3, the animals were pair-matched into treatment and control groups. Each group contained 6-7 tumored mice, each of which was ear-tagged and followed individually throughout the experiment. Initial doses of T8 or TP3 peptide or vehicle control were given on the day of pair-matching (Day 0), and were administered via intraperitoneal (i.p.) injection at doses indicated. Mice were weighed twice weekly, and tumor measurements were taken by calipers twice weekly, starting on Day 1. These tumor measurements were converted to tumor volume by a well-known formula, (V=W^2×L/2) and mean tumor volumes as well as volume ratios (V/Vo) were plotted against time. Mice were euthanized at the end of the treatment period. Upon termination, the mice were weighed, sacrificed and their tumors were excised. The mean tumor weight per group was calculated, and the mean value (treated tumor ratio/mean control tumor ratio× 100) was subtracted from 100% to give the tumor growth inhibition (TGI) for each group.
# Treatment was initiated when tumor volumes reached […]. All groups received injections I.P. daily, except for one T8-treated group, which was treated twice per week.
# [3] = system: MDAMB-435 tumor xenografts; test: MDAMB-435 human breast tumor xenograft (Example 59); type: in vivo, nude NCRNU mice; details: 5.0 mg/kg i.p. daily, 3 weeks
# Description: (§1) For tests involving the MDAMB-435 model, female nude NCRNU mice, 5-6 weeks old, weighing approximately 20 grams, were implanted with 2×10^6 MDAMB-435 cells into the subaxillary mammary fat pad. For tests involving the PC3 model, male nude NCRNU mice, 5-6 weeks old, weighing approximately 25 g were implanted with 2×10^6 PC3 cells into the dorsal subcutis. When the tumors were 100 mm^3 (for the MDAMB-435 model), or 60 mm^3 (for the PC3 model), the animals were pair-matched into treatment and control groups.
# (§2) Each group contained 6-7 tumored mice, each of which was ear-tagged and followed individually throughout the experiment. Initial doses of peptide or vehicle control were given on the day of pair-matching (Day 0), and were administered daily via intraperitoneal (i.p.) injection at doses indicated. Mice were weighed weekly, and tumor measurements were taken by calipers weekly, starting on Day 0. These tumor measurements were converted to tumor volume by a well-known formula, (V=W^2×L/2) and mean tumor volumes were plotted against time. Mice were euthenized at the end of the treatment period. Upon termination, the mice were weighed, sacrificed and their tumors were excised. The mean tumor weight per group was calculated, and the mean treated tumor volume/control tumor volume×100 was subtracted from 100% to give the tumor growth inhibition (TGI) for each group.
# [4] = system: MDAMB-435 tumor xenografts; type: in vivo; details: for Final Tumor Weight ± SEM: control 333.3 ± 39.61
# Procedure: Female nude NCRNU mice, 5-6 weeks old, weighing approximately 20 grams, were implanted with 2×10^6 MDAMB-435 cells in the subaxillary mammary fat pad. When the tumors were 100 mm^3, the animals were pair-matched into treatment and control groups. Each group contained 7 tumored mice, each of which was ear-tagged and followed individually throughout the experiment. Initial doses of T8 peptide or vehicle control were given on the day of pair-matching (Day 0), and were administered via intraperitoneal (i.p.) injection at 1 mg and 2.5 mg per kg animal weight. Mice were weighed twice weekly, and tumor measurements were taken by calipers twice weekly, starting on Day 1. These tumor measurements were converted to tumor volume by the well-known formula V=W2×L/2, and mean tumor volumes were plotted against time. Mice were euthenized at the end of the treatment period. Upon termination, the mice were weighed, sacrificed and their tumors were excised. The mean tumor weight per group was calculated, and the value of (mean treated tumor weight/mean control tumor weight×100) was subtracted from 100% to give the tumor growth inhibition (TGI) for each group.
# Treatment was initiated when tumor volumes reached 100 mm^3. All groups received injections bid, i.p., for 26 days.
# PC3 tumor xenografts [5] = test: PC3 human prostate tumor xenograft (Example 59); type: in vivo, nude NCRNU mice; details: 5.0 mg/kg i.p. daily, 3 weeks
# Description: as §1, §2
# [6] = system: mouse aortic endothelial cells (MAE); test: Endothelial tube formation on Matrigel; type: cell-based; details: endothelial tube assay (FIGS. 30 and 31)
# Procedure: To measure inhibition of endothelial tube formation, 320 μl of Matrigel (Collaborative Biomedical Products, Bedford, Mass., USA) was added to each well of a 24-well plate and allowed to polymerize (Grant, D. S. et al., 1994, Pathol. Res. Pract. 190:854-63). A suspension of 25,000 mouse aortic endothelial cells (MAE) in EGM-2 medium (Clonetics Corp., San Diego, Calif., USA) without antibiotic was passed into each well coated with Matrigel. The cells were treated with increasing concentrations of either Arresten, BSA, sterile PBS or the 7S domain. All assays were performed in triplicate. Cells were incubated for 24-48 hours at 37° C. and viewed using a CK2 Olympus microscope (3.3 ocular, 10× objective). The cells were then photographed using 400 DK coated TMAX film (Kodak). Cells were stained with diff-quik fixative (Sigma Chemical Company, St. Louis, Mo., USA) and photographed again. Ten fields were viewed, and the tubes counted and averaged.
# Matrigel (Collaborative Biomedical Products, Bedford, Mass., USA) was added ([…]) to each well of a 24 well plate and allowed to polymerize (Grant, D. S. et al., supra). A suspension of 25,000 mouse aortic endothelial cells (MAE) in EGM-2 (Clonetics Corporation, San Diego, Calif., USA) medium without antibiotic was passed into each well coated with Matrigel. The cells were treated with either Canstatin, BSA, sterile PBS or α5-NC1 domain in increasing concentrations. All assays were performed in triplicate. Cells were incubated for 24-48 hours at 37° C. and viewed using a CK2 Olympus microscope (3.3 ocular, 10× objective). The cells were then photographed using 400 DK coated TMAX film (Kodak). Cells were stained with diff-quik fixative (Sigma Chemical Co., St. Louis, Mo., USA) and photographed again (Grant, D. S. et al., 1994, Pathol. Res. Pract. 190:854-63). Ten fields were viewed, tubes counted and averaged.
# Matrigel (Collaborative Biomedical Prods., Bedford, Mass., USA) was added ([…]) to each well of a 24-well plate and allowed to polymerize (Grant, D. S. et al., 1994, Pathol. Res. Pract. 190:854-63). A suspension of 25,000 MAE cells in EGM-2 medium (Clonetics Corporation, San Diego, Calif., USA) without antibiotic was passed into each well coated with Matrigel (Grant, D. S. et al., 1994, Pathol. Res. Pract. 190:854-63). The cells were treated with either Tumstatin, BSA or 7S domain in increasing concentrations. Control cells were incubated with sterile PBS. All assays were performed in triplicate. Cells were incubated for 24-48 hours at 37° C. and viewed using a CK2 Olympus microscope (magnification of 3.3× ocular, 10× objective). The cells were then photographed using 400 DK coated TMAX film (Kodak). Cells were stained with diff-quik fixative (Sigma Chemical Co.) and photographed again (Grant, D. S. et al., 1994, Pathol. Res. Pract. 190:854-63). Ten fields were viewed, and the number of tubes were counted by two investigators unaware of the experimental protocols, and averaged.
# Fragments and mutants of Arresten and Canstatin were also made according to the Pseudomonas elastase digestions of Mariyama et al. (1992, J. Biol. Chem. 267:1253-58). The digest was resolved by gel filtration HPLC and the resultant fragments were analyzed by SDS-PAGE and evaluated in the endothelial tube assay described above. These fragments included a 12 kDa fragment of Arresten, an 8 kDa fragment of Arresten, and a 10 kDa fragment of Canstatin. In addition, two fragments of Tumstatin (‘333’ and ‘334’) were generated by PCR cloning.
# [7] = 5.0 mg/kg i.p. daily, 3 weeks, T7 vehicle 5.626 ± 0.38, T8 vehicle 6.278 ± 1.483
# [8] = 5.0 mg/kg, printed (2x/week) again, once a week in the text
molecule,measurement,setting,value
"KLFCNVNCVCNFASRNDYS (TP3 (amino acids 76-94 of SEQ ID NO10; lysine has been substituted for the phenylalanine residue at position 76 of the full-length Tumstatin molecule, and cysteine has been substituted for the aspartic acid at position 83))",% Tumor growth inhibition,"PC3 tumor xenografts [1]; 5.0 mg/kg i.p. daily, 3 weeks",53.2%
same,Final Tumor Weight (V/Vo) ± SEM,PC3 tumor xenografts [1]; [7],2.940 ± 0.636
same,Final Tumor Weight (V/Vo) ± SEM,[2]; 1.0 mg/kg I.P. daily,2.62 ± 0.45
same,% Tumor growth inhibition,[2]; 5.0 mg/kg I.P. daily,50.0%
same,Final Tumor Weight (V/Vo) ± SEM,[2]; 5.0 mg/kg I.P. daily,1.88 ± 0.29
KQRFTTMPFLFCNVNDVCNFASRNDYS [T8],% Tumor growth inhibition,PC3 tumor xenografts [1]; 5.0 mg/kg (2x/week),8.1%
same,Final Tumor Weight (V/Vo) ± SEM,PC3 tumor xenografts [1]; 5.0 mg/kg (2x/week),5.770 ± 1.156
same,% Tumor growth inhibition,"PC3 tumor xenografts [1]; 5.0 mg/kg i.p. daily, 3 weeks",45%
same,Final Tumor Weight (V/Vo) ± SEM,PC3 tumor xenografts [1]; [7],3.455 ± 1.228
same,% Tumor growth inhibition,PC3 tumor xenografts [1]; [8],39.5%
same,Final Tumor Weight (V/Vo) ± SEM,PC3 tumor xenografts [1]; [8],3.800 ± 1.602
same,% Tumor growth inhibition,[3],50.5%
same,Final Tumor Weight (V/Vo) ± SEM,[3]; control 468.5 ± 48.06,231.9 ± 27.03
same,% Tumor growth inhibition,"[4]; 2.5 mg/kg, bid i.p., 26 days",~49% and 47.91%
same,Final Tumor Weight ± SEM,"[4]; 2.5 mg/kg, bid i.p., 26 days",173.6 ± 23.73
same,Final Tumor Weight ± SEM,"[4]; Dosage 1.9 mg/kg as printed (1 mg/kg in the text), bid i.p., 26 days",237.8 ± 31.88
same,toxicity as judged by weight change,"[4]; mouse, in vivo",no toxicity
same,% Tumor growth inhibition,PC3 tumor xenografts [5],35.4%
same,Final Tumor Weight (V/Vo) ± SEM,PC3 tumor xenografts [5]; control 1070.0 ± 132.5,691.4 ± 90.52
same,Final Tumor Weight (V/Vo) ± SEM,[2]; 5.0 mg/kg (2x/week),2.21 ± 0.31
same,% Tumor growth inhibition,[2]; 5.0 mg/kg I.P. daily,31%
same,Final Tumor Weight (V/Vo) ± SEM,[2]; 5.0 mg/kg I.P. daily,2.60 ± 0.38
B1,ED50,[6],0.02 µg/mL
B2,ED50,[6],0.075 µg/mL
